# In patent US20070135490A1, “Phenetanolamine derivatives” (priority 2003, published 2007):
# Target: T1, human beta-2 receptor (Homo sapiens, UniProt P07550)
# T1 construct: expressed in transfected cells; host or cells: Chinese hamster ovary cells (whole cells or membranes derived from them)
# Experiment: Chinese hamster ovary cells co-expressing the human receptor with a reporter gene, cAMP measurement in whole cells or membranes (Method 2)
# Type: cell-based
# Details: CHO cells or membranes, read-out: pEC50 at the human beta-2 receptor (converted)
# Protocol: Potency of compounds of the invention at the human beta 2, 1 and 3 receptors was also determined using Chinese hamster ovary cells co-expressing the human receptor with a reporter gene. Studies were performed using either whole cells or membranes derived from those cells.
# The three beta-receptors are coupled via the Gs G-protein to cause a simulation of adenylate cyclase resulting in increased levels of cAMP in the cell. For direct cAMP measurements either membranes or cells have been used with either the HitHunter enzyme fragment complementation kit (DiscoveRx) or the FP^2 fluorescence polarisation kit (Perkin Elmer) to quantify the levels of cAMP present. These assays provide a measure of agonist potency and intrinsic activity of the compounds at the various receptors. […]
# In this assay the potency of compounds at the human beta-2 receptor is expressed as a pEC50 value. Compounds of examples 12-26, 28-50 and 52-64 had pEC50 values greather than 6. […] No result is available for the compound of example 51.
# T1 sequence (P07550 whole entry): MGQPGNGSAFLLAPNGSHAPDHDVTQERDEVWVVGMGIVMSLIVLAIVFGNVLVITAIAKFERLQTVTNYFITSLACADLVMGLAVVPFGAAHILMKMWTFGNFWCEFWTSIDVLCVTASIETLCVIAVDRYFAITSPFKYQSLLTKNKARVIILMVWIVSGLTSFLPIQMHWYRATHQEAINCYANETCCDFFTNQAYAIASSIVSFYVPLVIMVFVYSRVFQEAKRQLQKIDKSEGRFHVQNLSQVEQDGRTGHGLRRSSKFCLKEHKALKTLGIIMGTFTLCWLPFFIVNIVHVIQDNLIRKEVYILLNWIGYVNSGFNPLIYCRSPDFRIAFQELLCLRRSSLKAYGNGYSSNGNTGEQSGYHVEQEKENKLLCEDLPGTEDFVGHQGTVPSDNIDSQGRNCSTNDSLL
row,EC50 [µM],Structure (SMILES)
1,< 1,"O=S(=O)(c1cccc(COCc2cccc(CCNC[C@H](O)c3ccc(O)c(CO)c3)c2)c1)C1CCCC1 [Example 35, Formic acid compound with 4-[(1R)-2-({2-[3-({[3-(cyclopentylsulfonyl)benzyl]oxy}methyl)phenyl]ethyl}amino)-1-hydroxyethyl]-2-(hydroxymethyl)phenol (1:1)]"
2,< 1,"OCc1cc([C@@H](O)CNCCc2cccc(COCCOc3ccccc3)c2)ccc1O [Example 38, Formic acid compound with 2-(hydroxymethyl)-4-{(1R)-1-hydroxy-2-[(2-{3-[(2-phenoxyethoxy)methyl]phenyl}ethyl)amino]ethyl}phenol (1:1)]"
3,< 1,"N#Cc1cccc(CCCOCc2cccc(CCNC[C@H](O)c3ccc(O)c(CO)c3)c2)c1 [Example 22, Formic acid compound with 3-[3-({3-[2-({(2R)-2-hydroxy-2-[4-hydroxy-3-(hydroxymethyl)phenyl]ethyl}amino)ethyl]benzyl}oxy)propyl]benzonitrile (1:1)]"
4,< 1,"NC(=O)c1ccc(COCc2cccc(CCNC[C@H](O)c3ccc(O)c(CO)c3)c2)cc1 [Example 54, Formic acid compound with 4-[({3-[2-({(2R)-2-hydroxy-2-[4-hydroxy-3-(hydroxymethyl)phenyl]ethyl}amino)ethyl]benzyl}oxy)methyl]benzamide (1:1)]"
5,< 1,"O=S(=O)(c1cccc(COCCOCc2cccc(CCNC[C@H](O)c3ccc(O)c(CO)c3)c2)c1)C1CCCC1 [Example 33, Formic acid compound with 4-{(1R)-2-[(2-{3-[(2-{[3-(cyclopentylsulfonyl)benzyl]oxy}ethoxy)methyl]phenyl}ethyl)amino]-1-hydroxyethyl}-2-(hydroxymethyl)phenol (1:1)]"
6,< 1,"OCc1cc([C@@H](O)CNCCc2cccc(COCCc3ccc(F)cc3)c2)ccc1O [Example 40, Formic acid compound with 4-((1R)-2-{[2-(3-{[2-(4-fluorophenyl)ethoxy]methyl}phenyl)ethyl]amino}-1-hydroxyethyl)-2-(hydroxymethyl)phenol (1:1)]"
7,< 1,"NC(=O)c1cccc(COCc2cccc(CCNC[C@H](O)c3ccc(O)c(CO)c3)c2)c1 [Example 53, Formic acid compound with 3-[({3-[2-({(2R)-2-hydroxy-2-[4-hydroxy-3-(hydroxymethyl)phenyl]ethyl}amino)ethyl]benzyl}oxy)methyl]benzamide (1:1)]"
8,< 1,"COc1cccc(COCCOCc2cccc(CCNC[C@H](O)c3ccc(O)c(CO)c3)c2)c1 [Example 17, Formic acid compound with 4-[(1R)-1-hydroxy-2-({2-[3-({2-[(3-methoxybenzyl)oxy]ethoxy}methyl)phenyl]ethyl}amino)ethyl]-2-(hydroxymethyl)phenol (1:1)]"
9,< 1,"Cc1cc(C)cc(COCc2cccc(CCNC[C@H](O)c3ccc(O)c(CO)c3)c2)c1 [Example 46, Formic acid compound with 4-((1R)-2-{[2-(3-{[(3,5-dimethylbenzyl)oxy]methyl}phenyl)ethyl]amino}-1-hydroxyethyl)-2-(hydroxymethyl)phenol (1:1)]"
10,< 1,"NC(=O)c1cccc(COCCOCc2cccc(CCNC[C@H](O)c3ccc(O)c(CO)c3)c2)c1 [Example 52, Formic acid compound with 3-{[2-({3-[2-({(2R)-2-hydroxy-2-[4-hydroxy-3-(hydroxymethyl)phenyl]ethyl}amino)ethyl]benzyl}oxy)ethoxy]methyl}benzamide (1:1)]"
11,< 1,"[O-][S+](c1cccc(COCCOCc2cccc(CCNC[C@H](O)c3ccc(O)c(CO)c3)c2)c1)C1CCCC1 (stereo partly drawn) [Example 34, Formic acid compound with 4-{(1R)-2-[(2-{3-[(2-{[3-(cyclopentylsulfinyl)benzyl]oxy}ethoxy)methyl]phenyl}ethyl)amino]-1-hydroxyethyl}-2-(hydroxymethyl)phenol (1:1)]"
12,< 1,"OCc1cc([C@@H](O)CNCCc2cccc(COCc3ccc(F)cc3)c2)ccc1O [Example 50, Formic acid compound with 4-((1R)-2-{[2-(3-{[(4-fluorobenzyl)oxy]methyl}phenyl)ethyl]amino}-1-hydroxyethyl)-2-(hydroxymethyl)phenol (1:1)]"
13,< 1,"C[C@@H](OCc1cccc(CCNC[C@H](O)c2ccc(O)c(CO)c2)c1)c1ccccc1 [Example 44, Formic acid compound with 2-(hydroxymethyl)-4-[(1R)-1-hydroxy-2-({2-[3-({[(1R)-1-phenylethyl]oxy}methyl)phenyl]ethyl}amino)ethyl]phenol (1:1)]"

row,Structure (SMILES),EC50 [µM]
1,"O=S(=O)(c1cccc(CCCCOCc2cccc(CCNC[C@H](O)c3ccc(O)c(CO)c3)c2)c1)C1CCCC1 [Example 61, Formic acid compound with 4-[(1R)-2-({2-[3-({4-[3-(cyclopentylsulfonyl)phenyl]butoxy}methyl)phenyl]ethyl}amino)-1-hydroxyethyl]-2-(hydroxymethyl)phenol (1:1)]",< 1
